Measured values taken from paper PMC11242996, “IL-6 Inhibitory Compounds from the Aerial Parts of Piper attenuatum and Their Anticancer Activities on Ovarian Cancer Cell Lines” (Molecules, 2024).
Like-named read-outs stand apart in the source and are kept apart here.

Tests used:
[1] = test system: IL-6 activity in HEK-Blue™ IL-6 cells; assay: IL-6 inhibition bioassay using HEK-Blue IL-6 cells (STAT3-inducible SEAP reporter, QUANTI-Blue); type: cell-based, human; details: for EC50: 10 ng/mL IL-6, 24 h, SEAP readout, read-out: EC50 (IL-6 inhibitory activity); for inhibition of IL-6 activity: 10 ng/ml hIL-6, 24 h (Figure S22)
Procedure: We isolated eighteen compounds from P. attenuatum and assessed their inhibitory effects on IL-6 activity using the HEK-Blue™ IL-6 cell line. As the HEK-Blue™ IL-6 cells were transfected with a reporter gene expressing STAT3-inducible secreted embryonic alkaline phosphatase (SEAP), STAT3 was activated, and SEAP was produced when the cells were stimulated with IL-6. The extent of the inhibition of IL-6 downstream signaling by these compounds was assessed in vitro using bazedoxifene (gp130 inhibitor) as a positive control in the HEK-Blue™ IL-6 cells. Bazedoxifene is a newly developed third-generation indole-based estrogen receptor (ER) ligand used in the treatment of postmenopausal osteoporosis, also known as gp130 inhibitor.
The cells were treated with increasing concentrations of the eighteen isolated compounds (0, 0.1, 1, 5, 10, 50, and 100 μM) in the presence of 10 ng/mL IL-6.
(§1) The HEK-Blue™ IL-6 cells purchased from InvivoGen (San Diego, CA, USA) were used to seed 3 × 10^4 cells/200 µL in a 96-well plate. Each well was treated with different concentrations (0, 0.1, 1, 5, 10, 50, and 100 μM) of the isolated compounds. Recombinant human IL-6 (BioLegend, San Diego, CA, USA) was administered at 10 ng/mL. After 24 h, 20 μL of the cell suspension was added to 180 μL of QUANTI-Blue™ solution (InvivoGen, San Diego, CA, USA) in a fresh 96-well plate. After incubation at 37 °C for 2 h, the absorbance was measured spectrophotometrically (Epoch, BioTek Instruments, Winooski, VT, USA) at 635 nm. The EC50 values were calculated from a log([drug]) versus normalized response curve fit using GraphPad Prism version 5.00 for Windows (GraphPad Software, San Diego, CA, USA). The CC50 values were calculated from extrapolated concentration–response curves plotted with GraphPad Prism version 5.0 for Windows (GraphPad Software, San Diego, CA, USA) using inhibitory percentages versus the drug concentration logarithm.

SKOV3 cells = assay: CCK-8 cytotoxicity assay, SKOV3; type: cell-based, human; details: CCK-8, 24 h
Description: (§2) However, despite chemotherapy, many patients die of ovarian cancer recurrence. Inflammatory mediators such as IL-6 and several other cytokines influence drug resistance and recurrence in ovarian cancer.
(§3) The human epithelial ovarian cancer cell lines SKOV3 and A2780 were purchased from the Korean Cell Line Bank (KCLB, Seoul, Republic of Korea) and the European Collection of Cell Cultures (ECACC, Wiltshire, UK), respectively. The cisplatin-resistant A2780 (A2780-cis) and paclitaxel-resistant SKOV3 (SKOV3-TR) cells were obtained from Yonsei University (Institute of Women’s Life Medical Science, Division of Gynecological Oncology, Republic of Korea). SKOV3, SKOV3-TR, A2780, and A2780-cis cells were cultured in the RPMI-1640 medium (Welgene, Daegu, Republic of Korea). SKOV3-TR and A2780-cis cells were cultured in 100 nM paclitaxel (Cayman Chemical Company, Ann Arbor, MI, USA) and 1 µM cisplatin (Dong-A Pharmaceutical Co., Seoul, Republic of Korea), respectively. All the culture media were supplemented with 10% (v/v) fetal bovine serum and 1% penicillin or streptomycin (Gibco-BRL, Gaithersburg, MD, USA), and the cells were maintained at 37 °C in a humidified atmosphere of 5% CO2 and 95% air. Each culture medium was replaced with a fresh medium every 2–3 days.
(§4) A CCK-8 assay was performed to assess cytotoxicity. After seeding 5 × 10^5 cells/300 µL in 48-well plates, the cells were treated with the isolated compounds at 1, 5, 10, 20, 40, and 60 μM concentrations for 24 h. For the CCK-8 analysis, 30 μL of the CCK-8 solution (Dojindo, Kumamoto, Japan) was added to each well, allowed to react for 1 h, and then, the optical density value was measured at 450 nm using an ELISA microplate reader (Epoch, BioTek Instruments, Winooski, VT, USA). All the experiments were performed in triplicates. The IC50 values were calculated from a log([drug]) versus normalized response curve fit using GraphPad Prism version 5.00 for Windows (GraphPad Software, San Diego, CA, USA).

A2780 cells = assay: CCK-8 cytotoxicity assay, A2780; type: cell-based, human; details: CCK-8, 24 h
Description: as §2, §3, §4

[2] = test system: cisplatin-resistant A2780 (A2780-cis) cells; assay: CCK-8 cytotoxicity assay, A2780-cis; type: cell-based; details: Homo sapiens, A2780cis, CCK-8, 24 h
Description: as §2, §3, §4

[3] = test system: paclitaxel-resistant SKOV3 (SKOV3-TR) cells; assay: CCK-8 cytotoxicity assay, SKOV3-TR; type: cell-based; details: Homo sapiens, SKOV3TR, CCK-8, 24 h
Description: as §2, §3, §4

[4] = Cytotoxicity (CC50) in HEK-Blue IL-6 cells; type: cell-based; details: human, from extrapolated concentration-response curves
Procedure: as §1

[5] = Homo sapiens, HEK-Blue IL-6, 24 h

Row | Structure (SMILES) | TI (therapeutic index, CC50/EC50) [1] | EC50 [1] [µM] | EC50 [1, 5] [µM] | TI (therapeutic index, CC50/EC50) ([1]; listed as bazedoxifene) | IC50 (SKOV3 cells; Homo sapiens, SK-OV-3, 24 h) [µM] | IC50 (A2780 cells; Homo sapiens, A2780, 24 h) [µM] | IC50 [2] [µM] | IC50 [3] [µM] | CC50 at 24 h [4] [µM] | inhibition of IL-6 activity [1] | IC50 (SKOV3 cells) [µM] | IC50 (A2780 cells) [µM]
1 | Cc1c(-c2ccc(O)cc2)n(Cc2ccc(OCCN3CCCCCC3)cc2)c2ccc(O)cc12 [Bazedoxifene, bazedoxifene, reference compound] | 2.14 ± 0.78 | 1.91 ± 0.43 | 1.91 ± 2.84 | 2.14 | 7.25 ± 0.62 | 8.2 ± 1.77 | 33.8 ± 0.15 | 20.32 ± 0.2 | 4.07 ± 0.35 | – | – | –
2 | COc1ccc(CC2=C(Cc3ccc4c(c3)OCO4)C(=O)NC2OC)cc1OC (stereo not drawn) [Compound 3, piperimide III] | – | – | 3.52 ± 0.14 | – | 15.76 ± 0.15 | 17.5 ± 0.19 | 40.5 ± 1.11 | 41 ± 1.18 | 28.7 ± 0.19 | approximately 50% | – | –
3 | COc1ccc(C[C@H]2COC(=O)[C@@H]2Cc2ccc(OC)c(OC)c2)cc1OC [Compound 4, (-)-dimethylmatairesinol] | – | – | 4.06 ± 0.07 | – | 20.04 ± 0.18 | 20.6 ± 0.25 | 16.9 ± 0.19 | 33 ± 0.5 | 22.6 ± 0.25 | approximately 50% | – | –
4 | CC(=O)/C=C/[C@@]1(O)C(C)=CC(=O)CC1(C)C [Compound 11, (6S)-dehydrovomifoliol] | – | – | 2.12 ± 0.04 | – | ~10 | ~10 | 14.4 ± 0.21 | 19.9 ± 0.22 | 13.72 ± 0.11 | approximately 50% | 10.7 ± 0.14 | 9.8 ± 0.11
5 | CC1(C)C[C@@H](O)C[C@@]2(C)OC(=O)C=C12 [Compound 12, (-)-loliolide] | – | – | 0.91 ± 0.04 | – | ~10 | ~10 | 16.6 ± 0.18 | 6.44 ± 0.1 | 10.6 ± 0.1 | approximately 50% | 10.7 ± 0.31 | 8.62 ± 0.1
6 | O=c1cc(-c2ccc(O)cc2)oc2c(C3OC(CO)C(O)C(O)C3OC3OCC(O)(CO)C3O)c(O)cc(O)c12 (stereo not drawn) [Compound 17, ficuflavoside] | – | – | 1.31 ± 0.05 | – | 26.6 ± 0.3 | 21.8 ± 0.45 | 41 ± 0.63 | 40.3 ± 0.85 | 32.5 ± 0.45 | approximately 50% | – | –
